# Source: paper PMC10761937, “Functional engineering of human iPSC‐derived parasympathetic neurons enhances responsiveness to gastrointestinal hormones” (FEBS Open Bio, 2023)
# Test system: GLP1R‐neurons
# Assay: Ca^2+ imaging, GLP1R‐neurons (iPSC‐derived)
# Type: cell-based, human
# Details: 10 nM GLP1 (GLP1 (7–37) in method), day 35, Fluo‐8 AM
# Protocol: Before initiating differentiation, the iPSCs (1–2 × 10^5 cells·cm^−2; Cell lines and cell culture section) were transferred to 6‐well plates (Corning, Inc., Corning, NY, USA) coated with 2‐methacryloyloxyethyl phosphorylcholine (MPC) polymer (Lipidure CM5206E; NOF, Tokyo, Japan). The cells were maintained in mTeSR1 cGMP medium containing 10 μM Y‐27632 (Fujifilm Wako Pure Chemical Industries) for 2 or 3 days to form embryoid body (EBs) in a rotary shaker at 95 r.p.m. (OS‐762RC; Optime, Tokyo, Japan). Subsequently, iPSCs were differentiated into neural crest cells (NCCs), as previously reported. Briefly, NCCs were induced from Ebs using knockout serum replacement (KSR) medium and N2 medium with graded addition of nerve growth factors and signaling factors. KSR medium was composed of DMEM‐F12 (Fujifilm Wako Pure Chemical Industries), 20% KSR (Thermo Fisher Scientific), 1% NEAA, 1% monothioglycerol (Fujifilm Wako Pure Chemical Industries), and 1% P/S. N2 medium consisted of DMEM‐F12, 1% N2 supplement (Fujifilm Wako Pure Chemical Industries), 1% NEAA, and 1% P/S. When EB formation was considered day 0 of induction, the medium was changed at days 2, 5, 7, 9, and 12. […]
substance,measurement,setting,value
"GLP1: GLP1 (4280‐v; Peptide Institute, Inc.); GLP1 (7–37) in Ca2+ imaging (HAEGTFTSDVSSYLEGQAAKEFIAWLVKGRG; Glucagon-like peptide 1(7-37); UniProt P01275 98-128, looked up)",Intracellular Ca^2+ concentration of selected GLP1R‐neurons (traces),Fig. S5B,increased the intracellular Ca^2+ concentration
same,Ratio of change (ΔF stim/F 0) in mean fluorescence intensity before and after ligand addition,"n = 10, Student's t‐test vs. 0 nM, Fig. 6C",significantly increased
